Measured values taken from patent US9487494B2, “Cyclic hydrocarbon compounds for the treatment of diseases” (LEO PHARMA A/S, priority 2007, dated 2016).
pIC50: −log10 of the molar value.

Tests used:
[1] = target: recombinant human P450 2D6 (Homo sapiens (Human), UniProt P10635); assay: Screening for P450 2D6 inhibition (fluorescent AMMC substrate); assay type: in vitro ADME; conditions: recombinant human P450 CYP2D6, AMMC substrate, 30 min
Experimental: The assay rapidly screen for potential inhibitors of human P450 2D6 catalytic activity, by using recombinant human P450 2D6. The IC50 determination is performed in duplicate at eight concentrations.
Incubations were conducted in 96 well microtiter plates based on a method described by BD Biosciences. To the first well in each row, a NADPH regenerating system and test compound was added. In the second well and all remaining wells, NADPH regenerating system and acetonitrile (final concentration of 2%) was added. The final assay concentration of the NADPH regenerating system was 8.2 μM NADP^+, 0.41 mM glucose-6-phosphate, 0.41 mM magnesium chloride hexahydrate and 0.4 U/ml glucose-6-phosphate dehydrogenase and 0.01 mg/mL control insect cell membrane protein. The test compound solution was serially diluted 1:3 through the eighth wells.
The final concentration of the test compounds were in the range 100 μM to 45.7 nM in the eight rows. Wells 9 and 10 contained no test compound (only NADPH regenerating system and enzyme/substrate mix) and wells 11 and 12 were used as controls for background fluorescence (enzyme and substrate were added after the reaction was terminated). The plate was then pre-incubated at 37° C. for 10 min, and the reaction was initiated by the addition of pre-warmed enzyme/substrate mix. The assay concentration of the enzyme/substrate mix was 100 mM potassium phosphate, pH 7.4, 1.5 pmol recombinant human P450 CYP2D6 and 1.5 μM of the fluorescent substrate 3-[2-(N,N diethyl-N-methylamino)ethyl]-7-methoxy-4-methylcounnarin (AMMC). The assay was conducted in duplicate in a final volume of 200 μL per well. Reactions were terminated after 30 min by addition of a 4:1, acetonitrile:0.5 M Tris base solution. Quinidine was used as positive control, 0.5 μM as highest concentration. Fluorescence per well was measured using a fluorescence plate reader (excitation: 390 nm, emission: 460 nm). The IC50 values were calculated.

[2] = system: normal male Sprague Dawley rats; assay: In vivo test in normal rats (serum PTH and calcium); set-up: species or system rat; conditions: for PTH suppression / Suppression of Ca^2+: 1 mg/kg p.o., single dose, 2 hours after dosing, compared to vehicle-treated animals; for ED50: Rattus norvegicus, 2 h, oral single doses, blood two hours thereafter, normal rats, read-out: ED50 with respect to PTH suppression
Experimental: Various compounds were administered to normal male Sprague Dawley rats in order to examine the pharmacological effect on serum levels of total calcium and parathyroid hormone (PTH). The experiments were performed by orally administering a single dose of the respective compounds as compared to vehicle-treated animals or animals treated with the competitor compound Cinacalcet.
As a standard, a group of six animals were treated orally with 1 mg/kg of compound as a 1% methylcellulose suspension and two hours thereafter, blood was obtained by retro-orbital bleeding under anaesthesia and the serum calcium and PTH levels were measured.
In some instances, rats were treated orally with various doses of a given compound in 1% methylcellulose (six rats/dose) and blood was obtained by retro-orbital bleeding two hours thereafter. Using the software GraphPad Prism® 5, ED50 values for Cinacalcet, Compound 1056, Compound 1186, and Compound 1190 with respect to PTH suppression were calculated to be 0.9 mg/kg, 0.1 mg/kg, 0.04 mg/kg, and 0.002 mg/kg, respectively.
For some compounds, rats were bled at several time-points after oral administration (six rats/time point), and suppression of serum PTH levels was observed over time.

[3] = system: rat 5/6 nephrectomy model; assay: In vivo test using the 5/6 nephrectomy model in rats (secondary hyperparathyroidism); conditions: 336 h, oral once daily for two weeks, 5/6 nephrectomized rats, read-out: ED50, PTH lowering effect
Text: The lowering effect of different compounds on serum PTH was examined in vivo in the rat 5/6 nephrectomy model which is a widely accepted animal model of secondary hyperparathyroidism.
Two-third of the rats' (Sprague Dawley, at least 8 weeks old) left kidney was surgically removed followed by removal of the right kidney one week later.
After disease initiation, blood was obtained by retro-orbital bleeding and urine was collected using metabolic cages. Serum PTH, calcium, phosphorus, albumin, creatinine, and BUN as well as urinary creatinine and albumin were measured. Rats were then stratified into different treatment groups (9-12 rats/group) based on the results obtained. One group of normal rats without surgery served as control (“control”) and one group of nephrectomized rats treated with vehicle (1% Methylcellulose) was used as another control (“5/6 NEPX”). All other groups were treated orally with test compound at various doses once daily for two weeks and the above mentioned parameters were monitored weekly.

Sequence of recombinant human P450 2D6 (P10635 whole entry): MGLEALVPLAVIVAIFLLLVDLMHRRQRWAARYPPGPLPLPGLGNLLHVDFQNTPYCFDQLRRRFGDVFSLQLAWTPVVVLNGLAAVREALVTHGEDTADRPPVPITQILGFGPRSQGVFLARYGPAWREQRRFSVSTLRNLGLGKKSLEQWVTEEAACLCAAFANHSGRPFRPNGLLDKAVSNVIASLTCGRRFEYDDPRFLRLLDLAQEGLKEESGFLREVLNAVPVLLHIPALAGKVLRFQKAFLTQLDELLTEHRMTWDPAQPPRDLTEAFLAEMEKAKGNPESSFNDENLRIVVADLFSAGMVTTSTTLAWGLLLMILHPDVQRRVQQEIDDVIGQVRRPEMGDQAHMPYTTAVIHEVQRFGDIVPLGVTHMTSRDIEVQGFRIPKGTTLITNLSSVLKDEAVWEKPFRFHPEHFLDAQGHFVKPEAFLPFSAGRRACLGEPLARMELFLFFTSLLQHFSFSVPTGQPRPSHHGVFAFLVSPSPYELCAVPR

| Compound | pIC50 [1] | PTH suppression [2] [%] | Suppression of Ca^2+ [2] [%] | ED50 [2] [mg/kg] | ED50 [3] [mg/kg] |
| --- | --- | --- | --- | --- | --- |
| C[C@@H](NCCCc1cccc(C(F)(F)F)c1)c1cccc2ccccc12 [Cinacalcet, reference compound] | 7.30 | 48 | 5 | 0.9 | ~20 |
| C[C@@H](NC1CCCC(c2ccc(C(=O)O)cc2)C1)c1cccc2ccccc12 (stereo partly drawn) [Compound 1056, 4-[3-((R)-1-naphthalen-1-yl-ethylamino)-cyclohexyl]-benzoic acid] | 5.00 | 85 | 1 | 0.1 | ~2 |
| C[C@@H](N[C@H]1CCC[C@H](c2ccc(C(=O)NCC(=O)O)cc2)C1)c1cccc2ccccc12 [Compound 1115, {4-[(1S,3S)-3-((R)-1-Naphthalen-1-yl-ethylamino)-cyclohexyl]-benzoylamino}-acetic acid] | 4.89 | 50 | 3 | – | – |
| C[C@@H](N[C@H]1CCC[C@H](c2ccc(C(=O)NCCC(=O)O)cc2)C1)c1cccc2ccccc12.Cl [Compound 1136, 3-{4-[(1S,3S)-3-((R)-1-Naphthalen-1-yl-ethylamino)-cyclohexyl]-benzoylamino}-propionic acid hydrochloride] | 5.00 | 61 | 7 | – | – |
| C[C@@H](N[C@H]1CCC[C@H](c2ccc(C(=O)N3CC(C(=O)O)C3)cc2)C1)c1cccc2ccccc12 [Compound 1142, 1-{4-[(1S,3S)-3-((R)-1-Naphthalen-1-yl-ethylamino)-cyclohexyl]-benzoyl}-azetidine-3-carboxylic acid] | 4.60 | – | – | – | – |
| C[C@@H](N[C@H]1CCC[C@H](c2ccc(C(=O)N3CCC(C(=O)O)CC3)cc2)C1)c1cccc2ccccc12 [Compound 1146, 1-{4-[(1S,3S)-3-((R)-1-Naphthalen-1-yl-ethylamino)-cyclohexyl]-benzoyl}-piperidine-4-carboxylic acid] | 4.80 | 84 | 0 | – | – |
| C[C@@H](N[C@H]1CC[C@@H](c2ccc(OCC(=O)O)cc2)C1)c1cccc2ccccc12 [Compound 1186, {4-[(1R,3S)-3-((R)-1-Naphthalen-1-yl-ethylamino)-cyclopentyl]-phenoxy}-acetic acid] | 4.30 | 98 | 6 | 0.04 | ~0.3 |
| C[C@@H](NC1CCC(c2ccc(OCC(=O)O)cc2)C1)c1cccc2ccccc12 (stereo partly drawn) [Compound 1188, {4-[3-((R)-1-Naphthalen-1-yl-ethylamino)-cyclopentyl]-phenoxy}-acetic acid] | – | 97 | 12 | – | – |
| C[C@@H](N[C@H]1CC[C@H](c2ccc(CCC(=O)O)cc2)C1)c1cccc2ccccc12.Cl [Compound 1190, 3-{4-[(1S,3S)-3-((R)-1-Naphthalen-1-yl-ethylamino)-cyclopentyl]-phenyl}-propionic acid hydrochloride] | 4.10 | 93 | 18.5 | 0.002 | ~0.01 |
| C[C@@H](NC1CC[C@H](c2ccc(C(=O)O)cc2)C1)c1cccc2ccccc12 (stereo partly drawn) [Compound 1338, 4-[3-((R)-1-Naphthalen-1-yl-ethylamino)-cyclopentyl]-benzoic acid] | 4.00 | 85 | 29 | – | – |
